A short description of data set [1]: Particle Size Distribution (PSD) by Laser Diffraction (Malvern Mastersizer 3000). The data set is classed as physicochemical. Conditions: dispersed in ethyl acetate. As to the method: Particle Size Distribution (PSD) by Laser Diffraction
Particle size analyses were conducted on a Malvern Mastersizer™ 3000 using the Hydro MV™ dispersion unit. A non-validated general PSD method/dispersant method was used to analyze the niraparib samples. The sample preparation procedure performed was as follows: Weigh 10 to 20 mg of niraparib into a 30-mL vial, add 20 mL of ethyl acetate. Disperse the sample by vortexing then sonicating the suspension in an ultrasonic bath for 1 minute. Then transfer the sample suspension to the Malvern Hydro MV™ dispersion unit to obtain obscuration between 5 and 15%.
PSD results from a Dv10 of 0.601 μ to a Dv90 of 12.9μ were obtained. […] Particle size distributions can be viewed in Table 1.

Data set [2] is described as follows: Specific Surface Area (SSA) determination by BET Sorptometry. The format is physicochemical. As for the experimental part: As used herein, the “specific surface area” is the total surface area of the niraparib particle per unit of niraparib mass as measured by the Brunauer-Emmett-Teller (“BET”) isotherm (i.e.: the BET SSA). As will be understood by those of skill in the art, the SSA is determined on a per gram basis and takes into account both agglomerated and non-agglomerated niraparib particles in the composition. The BET specific surface area test procedure is a compendial method included in both the United States Pharmacopeia and the European Pharmacopeia. The niraparib particles have a specific surface area (SSA) of at least 5 m^2/g. In various further embodiments, the niraparib particles have a SSA of at least 6 m^2/g, 7 m^2/g, 8 m^2/g, 9 m^2/g 10 m^2/g, 11 m^2/g, 12 m^2/g, 13 m^2/g, 14 m^2/g, 15 m^2/g, 16 m^2/g, 17 m^2/g, 18 m^2/g, 19 m^2/g, 20 m^2/g, 21 m^2/g, 22 m^2/g, 23 m^2/g, or 24 m^2/g.
Specific Surface Area (SSA) determination by BET Sorptometry
Surface area analyses were conducted on a Quantachrome NOVAtouch™ LX2 BET Sorptometer. Surface area results can be found in Table 1.

A short description of data set [3]: Bulk density analysis by modified USP <616> Bulk Density of Powders Method I (bulk and tapped density). The data set is classed as physicochemical. From the text: As used herein, the bulk density (not tapped) of a particle is the ratio of the mass to the volume (including the interparticulate void volume) of an untapped powder sample.
As used herein, the tapped density of a particle is obtained by mechanically tapping a graduated cylinder containing the sample until little further volume change is observed.
Bulk density analysis by modified USP <616> Bulk Density of Powders Method I

Another data set can be described thus: physchem. The following applies: for solubility at 24 h: 20 °C, aqueous with cosolvent or surfactant or cyclodextrin, thermodynamic from solid. As to the method:
The solubility was determined by using a shake-flask method. The drug was added in excess to each solution prepared in duplicate. The vials were placed on a mechanical shaker for 24 hours at 20-25° C. After shaking, solution was removed and filtered through a 0.45 μm PTFE syringe filter and analyzed by UV/Visible spectrophotometry.

In brackets after ≈: the same amount, converted by molar mass.

We go through 1 compound from patent US11738014B2, “Niraparib particles and uses thereof” (CRITITECH, INC., priority 2021, dated 2023).

A word on the solubility: it is how much of the substance goes into solution per volume. In data set [1], `NC(=O)c1cccc2cn(-c3ccc([C@@H]4CCCNC4)cc3)nc12` [Niraparib, (S)-2-(4-(piperidin-3-yl)phenyl)-2H-indazole-7-carboxamide] showed a Dv-10 of 33.2 μ. The compound also came in with a Dv-50 in data set [1] of 103 μ. The compound further returned a Dv-90 in data set [1] of 267 μ. Besides, in data set [2] (BET sorptometer), the “Surface Area” value was found to be 0.70 m^2/gm. The “specific surface area measurement” value in data set [2] (material used in dissolution testing) is 0.70 m^2/g. Also, the “Bulk Density” value in data set [3] (not tapped) is 0.617 gm/cm^3. The “Tapped Density” value in data set [3] (tapped) was 0.741 gm/cm^3. Further, the solubility at 24 h was 56.2 µg/mL (≈ 175 µM) in the data set “physchem” (10% ethanol in water), 76.4 µg/mL (≈ 238 µM) in “physchem” (10% methanol in water), 332 µg/mL (≈ 1040 µM) in “physchem” (25% ethanol in water) and 204 µg/mL (≈ 637 µM) in the data set “physchem” (25% methanol in water). Moreover, the “solubility versus organic solvent concentration” value in the data set “physchem” (methanol or ethanol, 10% and 25%) was “concentration dependent solubility”.
